Measured values: the supplement of paper PMC10307832

How the values were obtained:
Experiment in all cases: relative viability (nuclei count vs DMSO), 5 days (fraction); higher = more cells survive
Ponatinib + Pemetrexed = compound: Cc1ccc(C(=O)Nc2ccc(CN3CCN(C)CC3)c(C(F)(F)F)c2)cc1C#Cc1cnc2cccnn12 [Ponatinib] + Nc1nc2[nH]cc(CCc3ccc(C(=O)N[C@@H](CCC(=O)O)C(=O)O)cc3)c2c(=O)[nH]1 [Pemetrexed] (partner 0.2 µM)
Outline: (§1)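 Five library-drug doses in √10 steps were combined with a fixed anchor-drug dose, or a single drug was given alone, by pin tool to lung cancer cell lines in 1536-well plates the day after seeding. Nuclei were stained and counted after 5 days. Relative viability is the nuclei count in treated wells over that in vehicle wells, taken as the median of duplicate plates.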

Ponatinib + Palbociclib = compound: Cc1ccc(C(=O)Nc2ccc(CN3CCN(C)CC3)c(C(F)(F)F)c2)cc1C#Cc1cnc2cccnn12 [Ponatinib] + CC(=O)c1c(C)c2cnc(Nc3ccc(N4CCNCC4)cn3)nc2n(C2CCCC2)c1=O [Palbociclib] (partner 0.5 µM)
Outline: as §1

Pazopanib + Decitabine = compound: Cc1ccc(Nc2nccc(N(C)c3ccc4c(C)n(C)nc4c3)n2)cc1S(N)(=O)=O [Pazopanib] + Nc1ncn([C@H]2C[C@H](O)[C@@H](CO)O2)c(=O)n1 [Decitabine] (partner 2 µM)
Outline: as §1

Pazopanib + Alpelisib = compound: Cc1ccc(Nc2nccc(N(C)c3ccc4c(C)n(C)nc4c3)n2)cc1S(N)(=O)=O [Pazopanib] + Cc1nc(NC(=O)N2CCC[C@H]2C(N)=O)sc1-c1ccnc(C(C)(C)C(F)(F)F)c1 [Alpelisib] (partner 2 µM)
Outline: as §1

Cell Line | relative viability (Ponatinib + Pemetrexed; first compound 0.002 µM) | relative viability (Ponatinib + Pemetrexed; first compound 0.006325 µM) | relative viability (Ponatinib + Pemetrexed; first compound 0.06325 µM) | relative viability (Ponatinib + Pemetrexed; first compound 0.2 µM) | relative viability (Ponatinib + Palbociclib; first compound 0.002 µM) | relative viability (Ponatinib + Palbociclib; first compound 0.006325 µM) | relative viability (Ponatinib + Palbociclib; first compound 0.06325 µM) | relative viability (Ponatinib + Palbociclib; first compound 0.2 µM) | relative viability (Pazopanib + Decitabine; first compound 0.01 µM) | relative viability (Pazopanib + Decitabine; first compound 0.03162 µM) | relative viability (Pazopanib + Decitabine; first compound 0.1 µM) | relative viability (Pazopanib + Decitabine; first compound 0.3162 µM) | relative viability (Pazopanib + Decitabine; first compound 1 µM) | relative viability (Pazopanib + Alpelisib; first compound 0.01 µM) | relative viability (Pazopanib + Alpelisib; first compound 0.03162 µM) | relative viability (Pazopanib + Alpelisib; first compound 0.1 µM) | relative viability (Pazopanib + Alpelisib; first compound 0.3162 µM) | relative viability (Pazopanib + Alpelisib; first compound 1 µM)
NCI-H1975 | 0.276 | 0.293 | 0.297 | 0.257 | 0.427 | 0.557 | 0.642 | 0.537 | 0.374 | 0.373 | 0.394 | 0.401 | 0.374 | 0.684 | 0.648 | 0.608 | 0.74 | 0.662
CAL-12T | 1.13 | 1.14 | 1.31 | 1.21 | 0.295 | 0.524 | 0.622 | 0.535 | – | – | – | – | – | 1.21 | 1.32 | 1.11 | 1.35 | 1.27
HCC-44 | 0.636 | 0.653 | 0.688 | 0.622 | 0.891 | 0.981 | 0.932 | 0.852 | 0.913 | 0.949 | 0.941 | 0.984 | 1 | 0.664 | 0.806 | 0.766 | 0.74 | 0.793
EKVX | 0.382 | 0.493 | 0.427 | 0.374 | 0.382 | 0.419 | 0.458 | 0.438 | 0.374 | 0.303 | 0.324 | 0.356 | 0.472 | 0.726 | 0.887 | 0.923 | 0.896 | 1.03
NCI-H1651 | 0.558 | 0.627 | 0.614 | 0.588 | 0.529 | 0.539 | 0.557 | 0.552 | 0.543 | 0.644 | 0.644 | 0.552 | 0.656 | 0.956 | 1.08 | 0.913 | 0.88 | 1.13
NCI-H2170 | 0.238 | 0.263 | 0.281 | 0.331 | 0.361 | 0.431 | 0.362 | 0.377 | 0.47 | 0.467 | 0.453 | 0.449 | 0.428 | 0.73 | 0.794 | 0.877 | 0.646 | 0.787
NCI-H1703 | – | – | – | – | – | – | – | – | – | – | – | – | – | 0.338 | 0.293 | 0.216 | 0.279 | 0.278
Calu-6 | – | – | – | – | – | – | – | – | – | – | – | – | – | 0.973 | 1.09 | 1.04 | 0.956 | 0.99
EBC-1 | – | – | – | – | – | – | – | – | – | – | – | – | – | 0.914 | 0.907 | 0.913 | 0.914 | 1
A-427 | 0.928 | 0.986 | 0.981 | 0.908 | 0.511 | 0.535 | 0.528 | 0.438 | 0.554 | 0.538 | 0.554 | 0.533 | 0.613 | 1.07 | 1.13 | 1.09 | 1.06 | 1.03
NCI-H2405 | 0.913 | 1.06 | 1.1 | 1.01 | 0.487 | 0.476 | 0.501 | 0.473 | 0.724 | 0.774 | 0.8 | 0.858 | 0.814 | 0.743 | 0.787 | 0.861 | 1.09 | 0.838
NCI-H1355 | 0.983 | 0.975 | 1.14 | 1.07 | 0.43 | 0.432 | 0.492 | 0.439 | 0.355 | 0.314 | 0.367 | 0.358 | 0.386 | – | 0.765 | 0.99 | 0.871 | 0.849
SK-MES-1 | 0.89 | 0.934 | 1.16 | 0.948 | 0.36 | 0.379 | 0.405 | 0.327 | 0.338 | 0.359 | 0.369 | 0.416 | 0.55 | 0.816 | 0.872 | 1.02 | 0.977 | 0.836
RERF-LC-KJ | 0.468 | 0.492 | 0.486 | 0.453 | 1.11 | 1.22 | 1.27 | 0.971 | 0.66 | 0.681 | 0.739 | 0.631 | 0.699 | 0.808 | 0.928 | 0.906 | 0.806 | 0.935
NCI-H2228 | 0.382 | 0.339 | 0.358 | 0.306 | 0.587 | 0.647 | 0.728 | 0.593 | – | – | – | – | – | 0.783 | 0.89 | 1.02 | 0.769 | 0.643
HOP-62 | 0.268 | 0.33 | 0.276 | 0.304 | 0.378 | 0.374 | 0.334 | 0.376 | 0.208 | 0.238 | 0.228 | 0.288 | 0.196 | 0.68 | 1 | – | 1.23 | 1.07
HARA | 0.262 | 0.23 | 0.246 | 0.282 | 0.246 | 0.332 | 0.228 | 0.246 | 0.484 | 0.615 | 0.6 | 0.543 | 0.602 | 0.82 | 0.779 | 0.846 | 0.818 | 0.982
PC-14 | 0.129 | 0.137 | 0.141 | 0.122 | 0.464 | 0.533 | 0.73 | 0.584 | 0.186 | 0.221 | 0.245 | 0.226 | 0.305 | 0.883 | 0.996 | 0.959 | 0.934 | 0.935
NCI-H1755 | 0.402 | 0.404 | 0.398 | 0.466 | 0.419 | 0.44 | 0.413 | 0.369 | 0.718 | 0.709 | 0.742 | 0.773 | 0.783 | 0.814 | 0.906 | 0.917 | 0.93 | 0.914
HCC-78 | 0.576 | 0.885 | 0.865 | 0.894 | 0.422 | 0.528 | 0.418 | 0.471 | – | 0.729 | 0.648 | 0.691 | 0.818 | 0.284 | 0.406 | 0.3 | 0.35 | 0.388
IA-LM | – | – | – | – | – | – | – | – | – | – | – | – | – | 0.665 | 0.856 | 0.876 | 0.669 | 0.509
